Test results reported in the supplement of paper PMC10307832.

Tests used:
Test in all cases: relative viability (nuclei count vs DMSO), 5 days (fraction); higher = more cells survive
[1] = compound: C[C@@H](C(=O)N[C@@H](C1CCCCC1)C(=O)N2CCC[C@H]2C(=O)N[C@@H]3[C@@H](CC4=CC=CC=C34)OCC#CC#CCO[C@@H]5CC6=CC=CC=C6[C@@H]5NC(=O)[C@@H]7CCCN7C(=O)[C@H](C8CCCCC8)NC(=O)[C@H](C)NC)NC [AZD5582] + CS(=O)(=O)N1CCN(Cc2cc3nc(-c4cccc5[nH]ncc45)nc(N4CCOCC4)c3s2)CC1 [Pictilisib] (partner 1 µM)
How it was run: (§1)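 Each reported value is a median over duplicate plates. It expresses relative viability: treated-well nuclei count divided by vehicle-well nuclei count. Lung cancer cell lines in 1536-well plates were dosed by pin tool a day after seeding, alone with one drug or with a fixed anchor-drug dose plus five library-drug doses (not always all listed) in √10 steps, and nuclei were counted after 5 days.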

[2] = compound: Cn1nnc2c(C(N)=O)ncn2c1=O [Temozolomide] + CS(=O)(=O)CCNCc1ccc(-c2ccc3ncnc(Nc4ccc(OCc5cccc(F)c5)c(Cl)c4)c3c2)o1 [Lapatinib] (partner 2 µM)
How it was run: as §1

[3] = compound: C[C@@H](C(=O)N[C@@H](C1CCCCC1)C(=O)N2CCC[C@H]2C(=O)N[C@@H]3[C@@H](CC4=CC=CC=C34)OCC#CC#CCO[C@@H]5CC6=CC=CC=C6[C@@H]5NC(=O)[C@@H]7CCCN7C(=O)[C@H](C8CCCCC8)NC(=O)[C@H](C)NC)NC [AZD5582] + CS(=O)(=O)CCNCc1ccc(-c2ccc3ncnc(Nc4ccc(OCc5cccc(F)c5)c(Cl)c4)c3c2)o1 [Lapatinib] (partner 2 µM)
How it was run: as §1

[4] = compound: Cn1nnc2c(C(N)=O)ncn2c1=O [Temozolomide] + Cc1nc(NC(=O)N2CCC[C@H]2C(N)=O)sc1-c1ccnc(C(C)(C)C(F)(F)F)c1 [Alpelisib] (partner 2 µM)
How it was run: as §1

Row | Cell Line | relative viability ([1]; first compound 0.001581 µM) | relative viability ([1]; first compound 0.005 µM) | relative viability ([1]; first compound 0.01581 µM) | relative viability ([1]; first compound 0.05 µM) | relative viability ([2]; first compound 0.2 µM) | relative viability ([2]; first compound 0.6325 µM) | relative viability ([2]; first compound 2 µM) | relative viability ([2]; first compound 6.325 µM) | relative viability ([2]; first compound 20 µM) | relative viability ([3]; first compound 0.001581 µM) | relative viability ([3]; first compound 0.005 µM) | relative viability ([3]; first compound 0.01581 µM) | relative viability ([3]; first compound 0.05 µM) | relative viability ([4]; first compound 0.2 µM) | relative viability ([4]; first compound 0.6325 µM) | relative viability ([4]; first compound 2 µM) | relative viability ([4]; first compound 6.325 µM) | relative viability ([4]; first compound 20 µM)
1 | NCI-H1915 | 0.88 | 0.999 | 0.824 | 0.936 | 0.995 | 0.935 | 0.876 | 0.693 | 0.376 | 0.923 | 1.02 | 0.873 | 0.89 | 1.05 | 1.02 | 0.905 | 0.625 | 0.335
2 | NCI-H1944 | 0.344 | 0.389 | 0.297 | 0.389 | 0.835 | 0.831 | 0.871 | 0.843 | 0.799 | 0.767 | 0.961 | 0.82 | 0.882 | 0.654 | 0.808 | 0.946 | 0.786 | 0.624
3 | NCI-H1975 | 0.3 | 0.348 | 0.315 | 0.409 | 1.02 | 0.946 | 1.1 | 0.846 | 0.987 | 1.01 | 1.21 | 0.836 | 1.2 | 0.711 | 0.712 | 0.718 | 0.642 | 0.676
4 | NCI-H1993 | 0.916 | 0.807 | 0.796 | 0.859 | 0.879 | 0.854 | 0.768 | 0.865 | 0.925 | 0.792 | 0.82 | 0.78 | 0.843 | 0.678 | 0.734 | 0.742 | 0.693 | 0.64
5 | NCI-H2009 | 0.741 | 0.998 | 0.467 | 0.705 | 1.12 | 0.739 | 0.973 | 0.911 | 1.01 | 0.632 | 0.861 | 0.452 | 0.62 | 1.15 | 1.17 | 1.21 | 1.11 | 1.24
6 | NCI-H2023 | 0.227 | 0.288 | 0.172 | 0.246 | 0.894 | 0.67 | 0.86 | 0.773 | 0.868 | 0.64 | 1.15 | 0.553 | 0.462 | 0.544 | 0.608 | 0.531 | 0.624 | 0.596
7 | NCI-H2085 | 0.572 | 0.44 | 0.488 | 0.584 | 0.75 | 0.751 | 0.75 | 0.779 | 0.778 | 0.667 | 0.818 | 0.654 | 0.731 | 1.01 | 0.927 | 0.994 | 1.1 | 0.953
8 | NCI-H2087 | 0.871 | 1.02 | 0.905 | 0.986 | 1.07 | 0.992 | 0.902 | 1.09 | 0.983 | 0.929 | 1.06 | 0.808 | 1.08 | 1.26 | 1.05 | 1.15 | 1.12 | 1.11
9 | NCI-H2126 | 0.505 | 0.556 | 0.436 | 0.533 | 0.82 | 0.771 | 0.793 | 0.771 | 0.797 | 0.845 | 0.854 | 0.719 | 0.75 | 0.703 | 0.753 | 0.799 | 0.744 | 0.752
10 | NCI-H2170 | 0.3 | 0.352 | 0.28 | 0.319 | – | 0.28 | 0.295 | 0.264 | 0.247 | 0.278 | 0.288 | 0.293 | 0.274 | – | 0.796 | 0.849 | 0.607 | 0.4
11 | NCI-H2228 | 0.286 | 0.352 | 0.378 | 0.193 | 1.15 | 1.04 | 1.3 | 0.959 | 1.18 | 0.614 | 0.739 | 1.05 | 0.34 | 0.77 | 0.721 | 0.516 | 0.813 | 0.679
12 | NCI-H2347 | 0.712 | 0.446 | 0.637 | 0.894 | 1.18 | 1.01 | 0.93 | 0.781 | 0.908 | 0.882 | 0.944 | 0.818 | 0.712 | 1.06 | 1.1 | 1.21 | 1.02 | 0.989
13 | NCI-H2405 | 0.459 | 0.856 | – | 0.612 | 1.12 | 1.08 | 1.21 | 0.921 | 1.05 | 1.11 | 1.21 | – | 1.01 | 0.405 | 0.819 | 0.891 | 0.734 | 0.738
14 | NCI-H3122 | 0.626 | 0.569 | 0.548 | 0.189 | 1.01 | 1.03 | 1.09 | 0.968 | 1.04 | 0.966 | 1.1 | 1.05 | 0.413 | 0.75 | 0.776 | 0.795 | 0.73 | 0.663
15 | PC-3 [JPC-3] | 0.664 | 0.543 | 0.607 | 0.332 | 0.504 | 0.466 | 0.511 | 0.461 | 0.437 | 0.423 | 0.411 | 0.448 | 0.26 | 1.09 | 0.982 | 0.979 | 1.07 | 0.396
16 | PC-14 | 0.501 | 0.549 | 0.598 | 0.295 | 0.318 | 0.321 | 0.396 | 0.343 | 0.297 | 0.301 | 0.391 | 0.33 | 0.223 | 1.08 | 0.958 | 0.95 | 0.867 | 0.217
17 | RERF-LC-KJ | 0.471 | – | 0.541 | 0.392 | 0.819 | 0.922 | 0.909 | 0.767 | 0.846 | 0.732 | 0.748 | 0.8 | 0.83 | 0.638 | 0.88 | 0.923 | 0.861 | 0.743
